Reference: patent publication US4314055A, “3,5-Disubstituted-2,4,6-triiodoanilides of polyhydroxy-monobasic acids” (Mallinckrodt, Inc., priority 1977, dated 1982)
Values after ≈ are worked out from the molar mass of the structure shown. Like-named read-outs stand apart in the source and are kept apart here.

What was measured:
water solubility = format: physicochemical
Description: A 15% w/v solution was prepared, seeded and stirred at room temperature.

Swiss Albino mice [1] = experiment: Acute Intravenous Toxicity Studies in Mice; format: in vivo, mouse (Swiss Albino, Charles River)
Description: (§1) Toxicity evaluations in accordance with three different techniques were carried out on aqueous solutions of the compounds of Examples I, II, IV, V, VI, VIII, IX, X, XI and XII. The techniques utilized are described below.
1. Acute Intravenous Toxicity Studies in Mice
Except as noted below, Swiss Albino mice (Charles River) were dosed in the lateral tail vein with solutions of the above-noted iodinated compounds having an iodine concentration of 28.2% with a pH of 7.0-7.2. The solutions were injected at the rate of approximately 1 ml./min. In the case of the compound of Examples I, II and VI, supersaturated solutions having an iodine concentration of 10%, 28% and 28%, respectively, were employed. […] The LD50 values were calculated by the method of Litchfield and Wilcoxon (J. of Pharmac. and Exptl. Therap. 96:99-113, 1949).

Swiss Albino mice [2] = experiment: Intracerebral Toxicity in Mice; format: in vivo, mouse (Swiss Albino, Charles River)
Description: as §1
2. Intracerebral Toxicity in Mice
Swiss Albino mice (Charles River) were used. Fixed volumes of aqueous solutions of the iodinated compounds were injected intracerebrally via a 27-gauge needle (1/4 inch in length) according to the method of Haley et al. (Br. J. of Pharmac. 12:12-15, 1957). Again in the case of the compounds of Examples I, II and VI, supersaturated solutions were employed. In the case of the compound of Examples VIII and IX, solutions having an iodine concentration of 35% and 42%, respectively, were employed and in the case of the compound of Example X, a solution having an iodine concentration of 40% was employed. The animals were observed immediately following injections and daily throughout a seven day observation period. The LD50 values were calculated by the method of Litchfield and Wilcoxon (J. of Pharmac. and Exptl. Therap. 96:99-113, 1949).

[3] = system: Sprague-Dawley (Carworth) rats; experiment: Intracisternal Toxicity in Rats; format: in vivo, rat (Sprague-Dawley; conditions: two day observation
Description: as §1
3. Intracisternal Toxicity in Rats
Sprague-Dawley (Carworth) rats were used. The method used was a variation of the procedure outlined by Melartin et al. (Invest. Rad. 5:13-21, 1970). In the case of the compound of Examples VIII and IX, solutions having an iodine concentration of 35% and 40%, respectively, were employed and in the case of the compound of Example X, a solution having an iodine concentration of 40% was employed. After dosing, the animals were housed individually and observed for immediate reactions and periodically for a two day observation period. The LD50 values were calculated according to the method of Litchfield and Wilcoxon (J. of Pharmac. and Exptl. Therap. 96:99-115, 1949).

dog [4] = experiment: tested as a bronchographic agent in a dog; format: in vivo
Description: (§2) The compound of Example I was tested as a bronchographic agent in a dog with good results. The compound of Example II was employed in intravenous pyelographic studies carried out in dogs. At a dosage of 250 mg. […] At a dosage of 350 mg. […] At a dosage of 350 mg. […] At a dosage of 190 mg. […] The compound of Examples VIII and IX was employed in intrathecal myelographic studies carried out in dogs. At dosages of 282 to 2400 mg. […] The compound of Examples VIII and IX was employed in intracisternal toxicity studies carried out in dogs using the cisterna magna as the route of administration. At a dosage of 1410 mg. […] The compound of Example X was employed in intravenous pyelographic studies carried out in rats. At a dosage of 500 mg. […] At a dosage of 70 mg. […] In a separate study, the compound of Examples XI and XII was administered to dogs by intraspinal administration at a dosage of 70 mg. I/kg.

dogs [5] = experiment: intravenous pyelographic studies in dogs; format: in vivo, dog; conditions: 250 mg. I/kg.
Description: as §2

dog [6] = experiment: urinary tract visualization after injection into a dog; format: in vivo
Description: as §2

rats = experiment: intravenous pyelographic studies in rats; format: in vivo, rat; conditions: 500 mg. I/kg.
Description: as §2

dogs [7] = experiment: intrathecal myelographic studies in dogs; format: in vivo, dog
Description: as §2

dogs [8] = experiment: intracisternal toxicity studies in dogs (cisterna magna route); format: in vivo, dog; conditions: 1410 mg. I/kg.
Description: as §2

dogs [9] = experiment: radiographs after intraspinal administration to dogs; format: in vivo, dog; conditions: 70 mg. I/kg.
Description: as §2

[10] = water, read-out: water solubility
[11] = supersaturated solution, seven day observation
[12] = supersaturated solution, iodine concentration 28%
[13] = iodine concentration 28.2%, pH 7.0-7.2, approx. 1 ml./min., seven-day observation
[14] = fixed volumes of aqueous solutions, seven day observation
[15] = water, initially, read-out: solubility, initial

For `CNC(=O)c1c(I)c(NC(=O)[C@H](O)[C@@H](O)[C@H](O)[C@H](O)CO)c(I)c(C(=O)NC)c1I` [Example I, 5-D-Gluconamido-2,4,6-triiodo-N,N'-dimethylisophthalamide], the solubility (water solubility; [10]) was 12 mg/mL (≈ 15.7 mM), the “LD50 Value I.V. (Mice)” value (Swiss Albino mice [1]; supersaturated solution, iodine concentration 10%) was > 10,000 mg. I/kg. body wt and the “LD50 Value Intracerebral (Mice)” value (Swiss Albino mice [2]; [11]) was > 750 mg. I/kg. body wt. The “LD50 Value Intracisternal (Rats)” value [3] was > 150 mg. I/kg. body wt and the “bronchographic agent test result” value (dog [4]) was “good results”.

In the case of `CNC(=O)c1c(I)c(NC(=O)[C@H](O)[C@@H](O)[C@H](O)[C@H](O)CO)c(I)c(C(=O)N(C)C)c1I` [Example II, 5-D-Gluconamido-2,4,6-triiodo-N,N,N'-trimethylisophthalamide], the solubility (water solubility; [10]) is reported as 284 mg/mL (≈ 365 mM), the “LD50 Value I.V. (Mice)” value (Swiss Albino mice [1]; [12]) is reported as 8,085 mg. I/kg. body wt and the “LD50 Value Intracerebral (Mice)” value (Swiss Albino mice [2]; [11]) is reported as 2,350 mg. I/kg. body wt. For the same compound, the “LD50 Value Intracisternal (Rats)” value [3] was 100 mg. I/kg. body wt, the “ureters and urinary bladder visualization” value (dogs [5]; five minutes after injection) was “the ureters and urinary bladder were visible” and the kidney visualization (dogs [5]; one minute after injection) was “kidney shadows were observed”.

In the case of `CNC(=O)c1c(I)c(NC(=O)[C@H](O)[C@@H](O)[C@H](O)[C@H](O)CO)c(I)c(N(C)C(C)=O)c1I` [Example IV, 3-D-Gluconamido-2,4,6-triiodo-N-methyl-5-(N-methylacetamido)-benzamide], the solubility (water solubility; [10]) is reported as ≥ 1000 mg/mL, the “LD50 Value I.V. (Mice)” value (Swiss Albino mice [1]; [13]) is reported as 6,400 mg. I/kg. body wt and the “LD50 Value Intracerebral (Mice)” value (Swiss Albino mice [2]; [14]) is reported as 1,175 mg. I/kg. body wt. The “LD50 Value Intracisternal (Rats)” value [3] was 75 mg. I/kg. body wt and the urinary bladder visualization (dog [6]; 350 mg. I/kd. (so in the source), 40 minutes after injection) was “gave a shadow of the urinary bladder”.

In the case of `CNC(=O)c1c(I)c(C(=O)N(C)C)c(I)c(N(C)C(=O)[C@@H](O)[C@H](O)[C@H](O)[C@@H](O)C=O)c1I` [Example V, 2,4,6-triiodo-N,N,N'-trimethyl-5-(N-methyl-D-galacturonamido)-isophthalamide], the solubility (water solubility; [10]) is reported as ≥ 1000 mg/mL, the “LD50 Value I.V. (Mice)” value (Swiss Albino mice [1]; [13]) is reported as 1,700 mg. I/kg. body wt and the “LD50 Value Intracerebral (Mice)” value (Swiss Albino mice [2]; [14]) is reported as 1,700 mg. I/kg. body wt. For the same compound, the “LD50 Value Intracisternal (Rats)” value [3] was 28 mg. I/kg. body wt and the “kidney and ureter visualization” value (dog [6]; 350 mg. I/kg., 5 minutes after injection) was “gave a kidney shadow with partial visualization of the ureters”.

In the case of `CNC(=O)c1c(I)c(NC(C)=O)c(I)c(NC(=O)[C@H](O)[C@@H](O)[C@H](O)[C@H](O)CO)c1I` [Example VI, 3-acetamido-5-D-gluconamido-2,4,6-triiodo-N-methylbenzamide], the solubility (water solubility; [10]) is reported as 86 mg/mL (≈ 113 mM), the “LD50 Value I.V. (Mice)” value (Swiss Albino mice [1]; [12]) is reported as 11,000 mg. I/kg. body wt and the “LD50 Value Intracerebral (Mice)” value (Swiss Albino mice [2]; [11]) is reported as ~ 2,000 mg. I/kg. body wt. The “LD50 Value Intracisternal (Rats)” value [3] was 180 mg. I/kg. body wt and the “kidney and ureter visualization” value (dog [6]; 190 mg. I/kg., one minute after injection) was “gave a kidney shadow with partial visualization of the ureters”.

Compound `CNC(=O)c1c(I)c(CO)c(I)c(NC(=O)[C@H](O)[C@@H](O)[C@H](O)[C@H](O)CO)c1I` [Example VII, 3-D-gluconamido-5-hydroxymethyl-2,4,6-triiodo-N-methylbenzamide] has a solubility (water solubility; [10]) of 18.6 mg/mL (≈ 25.3 mM).

In the case of `CNC(=O)c1c(I)c(NC(=O)C(=O)[C@@H](O)[C@H](O)[C@@H](O)CO)c(I)c(N(CCO)C(C)=O)c1I` [Example X, 3-[N-(2-hydroxyethyl)acetamido]-2,4,6-triiodo-5-(2-keto-L-gulonamido)-N-methylbenzamide], the solubility on standing (water solubility; after standing several days, analytical sample) is reported as “a precipitate formed after standing several days”, the “solubility, initial” value (water solubility; initially) is reported as 100 % (w/v) and the solubility at 504 h (water solubility; water, after 21 days) is reported as 640 mg/mL (≈ 795 mM). For the same compound, the solubility (water solubility; [15]) was 1000 mg/mL (≈ 1240 mM), the “LD50 Value I.V. (Mice)” value (Swiss Albino mice [1]; [13]) was ~ 10,500 mg. I/kg. body wt and the “LD50 Value Intracerebral (Mice)” value (Swiss Albino mice [2]; Iodine Conc. 40%) was 2,500 mg. I/kg. body wt. The “LD50 Value Intracisternal (Rats)” value ([3]; Iodine Conc. 40%) was 405 mg. I/kg. body wt, the urinary bladder contrast (rats; 10 and 15 minutes after dosing) was “showed good contrast” and the “collecting pelvis of the right kidney filling” value (rats; 10 minutes) was “showed good filling”. For the same compound, the “kidney and ureter visualization” value (rats; five minutes after injection) was “faint kidney and portions of ureters were observed”.

In the case of `CNC(=O)c1c(I)c(NC(=O)[C@H](O)[C@@H](O)[C@H](O)[C@H](O)CO)c(I)c(N(CCO)C(C)=O)c1I` [Examples VIII and IX, 3-gluconamido-5-[N-(2-hydroxyethyl)acetamido]-2,4,6-triiodo-N-methylbenzamide], the solubility (water solubility; water, printed as slightly less than, read-out: aqueous solubility) is reported as < 1000 mg/mL, the “LD50 Value I.V. (Mice)” value (Swiss Albino mice [1]; Iodine Conc. 40%) is reported as 14,500 mg. I/kg. body wt and the “LD50 Value I.V. (Mice)” value (Swiss Albino mice [1]; [13]) is reported as > 13,000 mg. I/kg. body wt. For the same compound, the “LD50 Value Intracerebral (Mice)” value (Swiss Albino mice [2]; Iodine Conc. 35%) was > 2,679 mg. I/kg. body wt, the “LD50 Value Intracerebral (Mice)” value (Swiss Albino mice [2]; Iodine Conc. 42%) was 2,200 mg. I/kg. body wt and the “LD50 Value Intracisternal (Rats)” value ([3]; Iodine Conc. 35%) was > 505 mg. I/kg. body wt. The “LD50 Value Intracisternal (Rats)” value ([3]; Iodine Conc. 40%) was 590 mg. I/kg. body wt, the “filling of subarachnoid space” value (dogs [7]; intrathecal, 282 to 2400 mg. I/kg., extent depending on volume injected and size of animal) was “good filling of the subarachnoid space from the cul-de-sac to the thoracic, cervical and cisterna magna” and the subarachnoid space filling (dogs [8]) was “partial filling of the cerebral subarachnoid space and good cervical and thoracic subarachnoid space filling”.

For `CNC(=O)c1c(I)c(NC(=O)[C@H](O)[C@@H](O)[C@H](O)[C@H](O)CO)c(I)c(NC(=O)[C@H](O)[C@@H](O)[C@H](O)[C@H](O)CO)c1I` [Examples XI and XII, 3,5-bis-D-gluconamido-2,4,6-triiodo-N-methylbenzamide], the turbidity of solution (water solubility; 15% w/v solution, seeded and stirred at room temperature) was “turbidity developed within two hours”, the solubility thermodynamic (water solubility; water, 15% w/v solution seeded, stirred at room temperature, filtered, filtrate aliquot evaporated to constant weight at 85° C.) was 120 mg/mL (≈ 133 mM) and the solubility at 24 h (water solubility; water, after 24 hr., read-out: aqueous solubility after 24 hr.) was < 150 mg/mL. For the same compound, the solubility (water solubility; [15]) was 1000 mg/mL (≈ 1110 mM), the “LD50 Value I.V. (Mice)” value (Swiss Albino mice [1]; [13]) was 20,500 mg. I/kg. body wt and the “LD50 Value Intracerebral (Mice)” value (Swiss Albino mice [2]; [14]) was 1,330 mg. I/kg. body wt. The “LD50 Value Intracisternal (Rats)” value [3] was > 560 mg. I/kg. body wt, the “radiographs, filling” value (dogs [7]; intrathecal injection, 70 mg. I/kg.) was “fair filling with some degree of scalloping” and the “radiographs, definition of lumbar and sacral spinal spaces” value (dogs [9]) was “the lumbar and sacral spinal spaces were well defined”.

With `CNC(=O)c1c(I)c(NC(=O)C(=O)[C@@H](O)[C@H](O)[C@@H](O)CO)c(I)c(C(=O)N(C)C)c1I` [III, 2,4,6-Triiodo-5-(2-keto-L-gulonamido)-N,N,N'-trimethylisophthalamide] the solubility (water solubility; [10]) was 37.5 mg/mL (≈ 48.4 mM).
